Reference: patent US9199941B2, “Pyrazole indanyl carboxamides” (BAYER CROPSCIENCE AG, priority 2012, dated 2015)

Legend:
Phakopsora pachyrhizi = assay: In vivo Phakopsora test (soybeans) / preventive; details: 10 ppm of active ingredient, evaluated 7 days after the inoculation
Experimental: (§1) [table] To produce a suitable preparation of active compound, 1 part by weight of active compound is mixed with the stated amounts of solvent and emulsifier, and the concentrate is diluted with water to the desired concentration. To test for preventive activity, young plants are sprayed with the preparation of active compound at the stated rate of application. […] The plants remain in the incubation cabinet at approximately 24° C. and a relative atmospheric humidity of approximately 80% and a day/night interval of 12 h.

[1] = test system: Fusarium nivale (var. majus); assay: In vivo Fusarium nivale (var. majus) test (wheat) / preventive; details: 500 ppm of active ingredient, evaluated 5 days after the inoculation
Experimental: [table] To produce a suitable preparation of active compound, 1 part by weight of active compound or active compound combination is mixed with the stated amounts of solvent and emulsifier, and the concentrate is diluted with water to the desired concentration. To test for preventive activity, young plants are sprayed with the preparation of active compound or active compound combination at the stated rate of application. After the spray coating has been dried, the plants are slightly injured by using a sandblast and afterwards they are sprayed with a conidia suspension of Fusarium nivale (var. majus).

[2] = test system: Blumeria graminis fsp. hordei; assay: In vivo Blumeria test (barley) / preventive; details: 500 ppm of active ingredient, evaluated 7 days after the inoculation
Experimental: [table] To produce a suitable preparation of active compound, 1 part by weight of active compound or active compound combination is mixed with the stated amounts of solvent and emulsifier, and the concentrate is diluted with water to the desired concentration. To test for preventive activity, young plants are sprayed with the preparation of active compound or active compound combination at the stated rate of application. After the spray coating has been dried, the plants are dusted with spores of Blumeria graminis fsp. hordei. The plants are placed in the greenhouse at a temperature of approximately 18° C. and a relative atmospheric humidity of approximately 80% to promote the development of mildew pustules.

[3] = log P by HPLC on reversed phase columns (EEC directive 79/831 Annex V.A8); format: physicochemical; details: Table 1, compounds of formula (I); method [a]: LC-MS at pH 2.7, 0.1% formic acid in water / acetonitrile
Sphaerotheca fuliginea = assay: In vivo preventive test on Sphaerotheca fuliginea (powdery mildew on cucurbits); details: 500 ppm, preventive spray, gherkin plants, grading 12 days after contamination
Experimental: Gherkin plants (“Vert petit de Paris” variety), sown in starter cups on a 50/50 peat soil-pozzolana substrate and grown at 24° C., are treated at the Z11 cotyledon stage by spraying with the active ingredient prepared as described above. Plants, used as controls, are treated with the mixture of acetone/tween/DMSO/water not containing the active material. After 24 hours, the plants are contaminated by spraying the cotyledons with an aqueous suspension of Sphaerotheca fuliginea spores (100 000 spores per ml). The spores are collected from infected plants. The contaminated gherkin plants are incubated at about 20° C. and at 70-80% relative humidity. Grading (% of efficacy) is carried out 12 days after the contamination, in comparison with the control plants.

Pyrenophora teres = assay: In vivo preventive test on Pyrenophora teres (net blotch on barley); details: 500 ppm, preventive spray, barley plants, incubated 48 hours then 12 days
Experimental: Barley plants (“Plaisant” variety), sown in starter cups on a 50/50 peat soil-pozzolana substrate and grown at 22° C., are treated at the 1-leaf stage (10 cm height) by spraying with the active ingredient prepared as described above. Plants, used as controls, are treated with the mixture of acetone/tween/DMSO/water not containing the active material. After 24 hours, the plants are contaminated by spraying the leaves with an aqueous suspension of Pyrenophora teres spores (12 000 spores per ml). The spores are collected from a 12-day-old culture.

Uromyces appendiculatus = assay: In vivo preventive test on Uromyces appendiculatus (bean rust); details: 500 ppm, preventive spray, bean plants, grading 11 days after contamination
Experimental: Bean plants (“Saxa” variety), sown in starter cups on a 50/50 peat soil-pozzolana substrate and grown at 24° C., are treated at the 2-leaf stage (9 cm height) by spraying with the active ingredient prepared as described above. Plants, used as controls, are treated with the mixture of acetone/tween/DMSO/water not containing the active material. After 24 hours, the plants are contaminated by spraying the leaves with an aqueous suspension of Uromyces appendiculatus spores (150 000 spores per ml). […] Grading (% of efficacy) is carried out 11 days after the contamination, in comparison with the control plants.

Pyricularia oryzae = format: in vivo; details: 500 ppm, preventive spray, rice plants, grading 6 days after contamination
Puccinia recondita = assay: In vivo preventive test on Puccinia recondita (brown rust on wheat); details: 500 ppm, preventive spray, wheat plants, grading 12 days after contamination
Experimental: Plants, used as controls, are treated with the mixture of acetone/tween/DMSO/water not containing the active material. After 24 hours, the plants are contaminated by spraying the leaves with an aqueous suspension of Puccinia […] spores (100 000 spores per ml). […] Grading (% of efficacy) is carried out 12 days after the contamination, in comparison with the control plants.

Phytophthora infestans = format: in vivo; details: 500 ppm, preventive spray, tomato plants, grading 5 days after contamination
Alternaria brassicae = assay: In vivo preventive test on Alternaria brassicae (leaf spot on radish); details: 500 ppm, preventive spray, radish plants, grading 6 days after contamination
Experimental: Radish plants (“Pernod Clair” variety), sown in starter cups on a 50/50 peat soil-pozzolana substrate and grown at 17° C., are treated at the cotyledon stage by spraying with the active ingredient prepared as described above. Plants, used as controls, are treated with the mixture of acetone/tween/DMSO/water not containing the active material. After 24 hours, the plants are contaminated by spraying the cotyledons with an aqueous suspension of Alternaria brassicae spores (50 000 spores per ml). The spores are collected from a 15-day-old culture. […] Grading (% of efficacy) is carried out 6 days after the contamination, in comparison with the control plants.

Venturia inaequalis = assay: In vivo Venturia test (apples) / preventive; details: 100 ppm of active ingredient, evaluated 10 days after the inoculation
Experimental: as §1, with “are then placed” for “remain”, “a greenhouse” for “the incubation cabinet”, “21°” for “24°”, “90%.” for “80% and a day/night interval of 12 h.”

Botrytis cinerea = assay: In vivo preventive test on Botrytis cinerea (grey mould), gherkin; details: 500 ppm, preventive spray, gherkin plants, grading 4 to 5 days after contamination
Experimental: Gherkin plants (“Vert petit de Paris” variety), sown in starter cups on a 50/50 peat soil-pozzolana substrate and grown at 24° C., are treated at the Z11 cotyledon stage by spraying with the active ingredient prepared as described above. Plants, used as controls, are treated with the mixture of acetone/tween/DMSO/water not containing the active material. After 24 hours, the plants are contaminated by spraying the cotyledons with an aqueous suspension of cryopreserved Botrytis cinerea spores (50 000 spores per ml). The spores are suspended in a nutrient solution composed of 10 g/L of PDB, 50 g/L of D-Fructose, 2 g/L of NH4NO3 and 1 g/L of KH2PO4. The contaminated gherkin plants are incubated at 17° C. and at 90% relative humidity. Grading (% of efficacy) is carried out 4 to 5 days after the contamination, in comparison with the control plants.

Septoria tritici = assay: In vivo preventive test on Septoria tritici (leaf spot on wheat); details: 500 ppm, preventive spray, wheat plants, grading 24 days after contamination
Experimental: Wheat plants (“Scipion” variety), sown in starter cups on a 50/50 peat soil-pozzolana substrate and grown at 22° C., are treated at the 1-leaf stage (10 cm height) by spraying with the active ingredient prepared as described above. Plants, used as controls, are treated with the mixture of acetone/tween/DMSO/water not containing the active material. After 24 hours, the plants are contaminated by spraying the leaves with an aqueous suspension of cryopreserved Septoria tritici spores (500 000 spores per ml). […] Grading (% of efficacy) is carried out 24 days after the contamination, in comparison with the control plants.

| Structure (SMILES) | Eff. % (Phakopsora pachyrhizi) | Eff. % [1] | Eff. % [2] | logP [3] | Eff. % (Sphaerotheca fuliginea) | Eff. % (Pyrenophora teres) | Eff. % (Uromyces appendiculatus) | Eff. % (Pyricularia oryzae) | Eff. % (Puccinia recondita) | Eff. % (Phytophthora infestans) | Eff. % (Alternaria brassicae) | Eff. % (Venturia inaequalis) | Eff. % (Botrytis cinerea) | Eff. % (Septoria tritici) |
| --- | --- | --- | --- | --- | --- | --- | --- | --- | --- | --- | --- | --- | --- | --- |
| CC1CC(C(C)C)c2cccc(NC(=O)c3cn(C)nc3C(F)F)c21 (stereo not shown) [Example 1] | 100% | 86% | 80% | 3.74[a] | 100% | 81% | 100% | 93% | 100% | – | – | – | – | – |
| CC1CC(C)c2c(NC(=O)c3cn(C)nc3C(F)F)cccc21 (stereo not shown) [Example 7] | 100% | 100% | 94% | 3.04[a] | 100% | 92% | 100% | – | 100% | 99% | 100% | 100% | 100% | 93% |
